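Values below derive from 48-hour exposures of cells grown in 96-well plates, with endpoints linearly interpolated between the two concentrations bracketing the appropriate inhibition level. Abbreviation: GI50, concentration required for 50% inhibition of growth. TGI: concentration producing complete growth inhibition.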
Tests used:
Assay in all cases: NCI-60 cell line screen, 48 h
NCI-H23 lung = test system: NCI-H23 lung
DLD-1 colon = test system: DLD-1 colon
DMS 273 small cell lung = test system: DMS 273 small cell lung
M19-MEL melanoma = test system: M19-MEL melanoma
DMS 114 small cell lung = test system: DMS 114 small cell lung
SNB-78 CNS = test system: SNB-78 CNS
LXFL 529 NSCLC = test system: LXFL 529 NSCLC
XF 498 CNS = test system: XF 498 CNS
DU-145 prostate = test system: DU-145 prostate
NCI-H522 lung = test system: NCI-H522 lung
SK-MEL-5 melanoma = test system: SK-MEL-5 melanoma
UO-31 renal = test system: UO-31 renal
PC-3 prostate = test system: PC-3 prostate
M14 melanoma = test system: M14 melanoma
MDA-MB-231 breast = test system: MDA-MB-231 breast
COLO 205 colon = test system: COLO 205 colon
HL-60(TB) leukemia = test system: HL-60(TB) leukemia
NCI-H226 lung = test system: NCI-H226 lung
TK-10 renal = test system: TK-10 renal
HCT-15 colon = test system: HCT-15 colon
SK-MEL-2 melanoma = test system: SK-MEL-2 melanoma
RXF 393 renal = test system: RXF 393 renal
LOX IMVI melanoma = test system: LOX IMVI melanoma
OVCAR-5 ovarian = test system: OVCAR-5 ovarian
K-562 leukemia = test system: K-562 leukemia
OVCAR-4 ovarian = test system: OVCAR-4 ovarian
MOLT-4 leukemia = test system: MOLT-4 leukemia
HOP-92 NSCLC = test system: HOP-92 NSCLC
A498 renal = test system: A498 renal
EKVX NSCLC = test system: EKVX NSCLC
SF-539 CNS = test system: SF-539 CNS
T-47D breast = test system: T-47D breast
SK-MEL-28 melanoma = test system: SK-MEL-28 melanoma
786-0 renal = test system: 786-0 renal
KM20L2 colon = test system: KM20L2 colon
HS 578T breast = test system: HS 578T breast
RPMI-8226 leukemia = test system: RPMI-8226 leukemia
MDA-MB-435 = test system: MDA-MB-435
SNB-75 CNS = test system: SNB-75 CNS
IGROV1 ovarian = test system: IGROV1 ovarian
CAKI-1 renal = test system: CAKI-1 renal
SK-OV-3 ovarian = test system: SK-OV-3 ovarian
UACC-257 melanoma = test system: UACC-257 melanoma
HCT-116 colon = test system: HCT-116 colon
UACC-62 melanoma = test system: UACC-62 melanoma
A549 NSCLC = test system: A549 NSCLC
MALME-3M melanoma = test system: MALME-3M melanoma
OVCAR-3 ovarian = test system: OVCAR-3 ovarian
SNB-19 CNS = test system: SNB-19 CNS
BT-549 breast = test system: BT-549 breast
SF-295 CNS = test system: SF-295 CNS
KM12 colon = test system: KM12 colon
NCI/ADR-RES ovarian = test system: NCI/ADR-RES ovarian
OVCAR-8 ovarian = test system: OVCAR-8 ovarian
NCI-H460 lung = test system: NCI-H460 lung
ACHN renal = test system: ACHN renal
SF-268 CNS = test system: SF-268 CNS
U251 CNS = test system: U251 CNS
MCF7 breast = test system: MCF7 breast
SW-620 colon = test system: SW-620 colon
HCC-2998 colon = test system: HCC-2998 colon
SN12C renal = test system: SN12C renal
HOP-62 NSCLC = test system: HOP-62 NSCLC

## C/C=C(\NC(=O)C(CCCCN)NC(=O)C(C)NC(=O)C1CSC(C)C(NC(=O)C2CSCC(NC(=O)C(C)NC(=O)C(N)C(C)CC)C(=O)NC(CCCCN)C(=O)NC(Cc3ccccc3)C(=O)NC(CC(C)C)C(=O)N2)C(=O)N2CCCC2C(=O)NCC(=O)N1)C(=O)NCC(=O)NC1CSCC2NC(=O)C(Cc3ccc(O)cc3)NC(=O)C(CSC=CNC2=O)NC(=O)C(CC(N)=O)NC(=O)C(Cc2ccccc2)NC1=O (stereo not given)
NCI-H23 lung
  TGI: > 100 µM
DLD-1 colon
  TGI: > 100 µM
DMS 273 small cell lung
  TGI: > 100 µM
M19-MEL melanoma
  TGI: > 100 µM
DMS 114 small cell lung
  TGI: > 100 µM
SNB-78 CNS
  TGI: > 100 µM
LXFL 529 NSCLC
  TGI: > 100 µM
XF 498 CNS
  TGI: > 100 µM

## CC1=C(CO)C(=O)O[C@@H]([C@@H](C)[C@H]2CC[C@H]3[C@@H]4C[C@H]5O[C@]56[C@@H](O)C=CC(=O)[C@]6(C)[C@H]4CC[C@]23C)C1
DU-145 prostate
  GI50: 0.294 µM
  TGI: 0.91 µM
NCI-H522 lung
  TGI: 0.114 µM
SK-MEL-5 melanoma
  TGI: 2.79 µM
UO-31 renal
  TGI: 1.31 µM
PC-3 prostate
  GI50: 1.03 µM
  TGI: 2.46 µM
M14 melanoma
  TGI: 1.06 µM
MDA-MB-231 breast
  GI50: 0.491 µM
  TGI: 1.77 µM
COLO 205 colon
  TGI: 0.81 µM
HL-60(TB) leukemia
  TGI: 0.821 µM
NCI-H226 lung
  TGI: 2.86 µM
TK-10 renal
  TGI: 1.99 µM
HCT-15 colon
  TGI: 1.94 µM
SK-MEL-2 melanoma
  TGI: 1.93 µM
NCI-H23 lung
  TGI: 0.81 µM
RXF 393 renal
  GI50: 0.44 µM
  TGI: 1.66 µM
LOX IMVI melanoma
  GI50: 0.172 µM
  TGI: 0.547 µM
OVCAR-5 ovarian
  TGI: 2.64 µM
K-562 leukemia
  TGI: 2.5 µM
OVCAR-4 ovarian
  TGI: 1.8 µM
MOLT-4 leukemia
  TGI: 1.72 µM
HOP-92 NSCLC
  TGI: 1.46 µM
A498 renal
  GI50: 0.408 µM
  TGI: 1.53 µM
DLD-1 colon
  TGI: 1.03 µM
EKVX NSCLC
  GI50: 0.434 µM
  TGI: 1.45 µM
SF-539 CNS
  TGI: 2.3 µM
T-47D breast
  GI50: 0.5 µM
  TGI: 2.5 µM
SK-MEL-28 melanoma
  TGI: 2.29 µM
786-0 renal
  TGI: 1.73 µM
KM20L2 colon
  TGI: 1.47 µM
DMS 273 small cell lung
  TGI: 1.53 µM
HS 578T breast
  GI50: 0.402 µM
  TGI: > 100 µM
RPMI-8226 leukemia
  TGI: 37.5 µM
MDA-MB-435
  GI50: 0.252 µM
  TGI: 0.976 µM
SNB-75 CNS
  TGI: 3.25 µM
M19-MEL melanoma
  TGI: 3.01 µM
IGROV1 ovarian
  TGI: 0.544 µM
CAKI-1 renal
  TGI: 0.773 µM
SK-OV-3 ovarian
  GI50: 3.93 µM
  TGI: 13.8 µM
DMS 114 small cell lung
  TGI: 1.95 µM
UACC-257 melanoma
  TGI: 2.32 µM
HCT-116 colon
  TGI: 0.538 µM
UACC-62 melanoma
  TGI: 2.7 µM
A549 NSCLC
  TGI: 3.96 µM
MALME-3M melanoma
  TGI: 0.826 µM
LXFL 529 NSCLC
  TGI: 1.26 µM
OVCAR-3 ovarian
  TGI: 0.792 µM
SNB-19 CNS
  TGI: 6.07 µM
BT-549 breast
  GI50: 0.79 µM
  TGI: 2.15 µM
SF-295 CNS
  TGI: 3 µM
KM12 colon
  TGI: 1.82 µM
NCI/ADR-RES ovarian
  GI50: 0.821 µM
  TGI: 11.2 µM
OVCAR-8 ovarian
  TGI: 1.76 µM
NCI-H460 lung
  TGI: 5.11 µM
ACHN renal
  TGI: 2.02 µM
SF-268 CNS
  TGI: 1.29 µM
U251 CNS
  TGI: 1.52 µM
MCF7 breast
  GI50: 0.345 µM
  TGI: 2.43 µM
SW-620 colon
  TGI: 0.603 µM
HCC-2998 colon
  TGI: 1.56 µM
SN12C renal
  GI50: 0.463 µM
  TGI: 1.78 µM
HOP-62 NSCLC
  TGI: 2.48 µM
XF 498 CNS
  TGI: 2.82 µM

— PubChem BioAssay (NCI)
